Test results as given in PMC10343472, “Cyclopentenylcytosine (CPE-C): In Vitro and In Vivo Evaluation as an Antiviral against Adenoviral Ocular Infections” (Molecules, 2023).

Columns and labels:
NZW rabbit eyes = experiment: ocular toxicity in Draize rabbit model; type: in vivo, New Zealand white (NZW) rabbits; design: key to Maximum Mean Total Score: Draize/MMTS ocular toxicity score; as to Draize irritation class: key: N = Non-Irritating; PN = Practically Non-Irritating
Procedure: CPE-C was evaluated for ocular toxicity using the standard Draize ocular scoring method which has been in use to determine the toxicity of cosmetics and chemicals since 1944 [39]. CPE-C ointments (3%, 2%, 1%, 0.5%) were administered topically 4 times daily for 4 days in uninfected, non-scarified NZW rabbit eyes (n = 2). Additionally, the 3% CPE-C concentration was also evaluated in rabbit eyes after corneal scarification. Overall, CPE-C, in concentrations up to 3% in an Aquaphor vehicle, appeared to be non-toxic to NZW rabbit eyes. […] There appeared to be no inhibition of corneal epithelial wound healing by the CPE-C in eyes that had undergone corneal epithelial scarification. Since the 3% CPE-C was the highest non-toxic concentration tested, this concentration was chosen for the in vivo antiviral efficacy testing in the Ad5/NZW rabbit ocular replication model.
CPE-C ointment (3%, 2%, 1%, 0.5%) was administered topically 4 times daily for 4 days in uninfected, non-scarified NZW rabbit eyes (n = 2). The CPE-C ointments were administered in approximately ½ inch strips per dose via a syringe with a 19-gauge cannula attached. The eyes were closed and gently rubbed to produce even distribution of antiviral over the entire ocular surface. The 3% CPE-C concentration was also evaluated in rabbit eyes after corneal scarification (general anesthesia with 40 mg/kg of ketamine and 4 mg/kg of xylazine administered intramuscularly and topical ocular anesthesia with proparacaine followed by 12 cross-hatched strokes with a #25 needle). All eyes were evaluated in a masked fashion for ocular toxicity using the Draize and MMTS scoring system on days 2, 3, and 4.

[1] = signs of systemic toxicity in the rabbit studies after topical ocular administration; type: in vivo; details: topical ocular administration in the doses given
Excerpt: Like 2′,3′-dideoxycytidine (ddC; zalcitabine), the most important unresolved issue affecting the future commercial development of CPE-C is systemic safety. The untimely deaths reported in 1995 of two cancer patients treated with intravenous CPE-C [35] raises serious concerns for the treatment of a self-limited non-blinding ocular infection. […] Therefore, the challenge for a pharmaceutical company will be to generate convincing and reassuring systemic safety data following topical administration. Given the negative clinical history associated with this compound, a persuasive package of unambiguous data will be required to convince appropriate governmental regulatory agencies to grant approval for the proposed ocular indication for CPE-C as the first topical anti-adenoviral drug.

[2] = design: method as in PMID 11431446; details: topical ocular; cited from earlier work
[3] = 1% ointment 4 times daily, non-scarified eyes, Day 2
[4] = 1% ointment 4 times daily, non-scarified eyes, Day 3
[5] = 1% ointment 4 times daily, non-scarified eyes, Day 4
[6] = 2% ointment 4 times daily, non-scarified eyes, Day 2
[7] = 2% ointment 4 times daily, non-scarified eyes, Day 3
[8] = 2% ointment 4 times daily, non-scarified eyes, Day 4
[9] = 3% ointment 4 times daily, non-scarified eyes, Day 2

SMILES: Nc1ccn([C@@H]2C=C(CO)[C@@H](O)[C@H]2O)c(=O)n1 [CPE-C, Cyclopentenylcytosine]
- Maximum Mean Total Score (NZW rabbit eyes; 0.5% ointment 4 times daily, non-scarified eyes, Day 2): 1.0
- Maximum Mean Total Score (NZW rabbit eyes; 0.5% ointment 4 times daily, non-scarified eyes, Day 3): 1.0
- Maximum Mean Total Score (NZW rabbit eyes; 0.5% ointment 4 times daily, non-scarified eyes, Day 4): 1.0
- Draize irritation class (NZW rabbit eyes; [3]): N
- Maximum Mean Total Score (NZW rabbit eyes; [3]): 0.0
- Draize irritation class (NZW rabbit eyes; [4]): N
- Maximum Mean Total Score (NZW rabbit eyes; [4]): 0.0
- Draize irritation class (NZW rabbit eyes; [5]): N
- Maximum Mean Total Score (NZW rabbit eyes; [5]): 0.0
- Draize irritation class (NZW rabbit eyes; [6]): N
- Maximum Mean Total Score (NZW rabbit eyes; [6]): 0.0
- Draize irritation class (NZW rabbit eyes; [7]): N
- Maximum Mean Total Score (NZW rabbit eyes; [7]): 0.0
- Draize irritation class (NZW rabbit eyes; [8]): N
- Maximum Mean Total Score (NZW rabbit eyes; [8]): 0.0
- Maximum Mean Total Score (NZW rabbit eyes; 3% ointment 4 times daily, eyes with scarification, Day 2): 1.0
- Maximum Mean Total Score (NZW rabbit eyes; 3% ointment 4 times daily, eyes with scarification, Day 3): 1.0
- Maximum Mean Total Score (NZW rabbit eyes; 3% ointment 4 times daily, eyes with scarification, Day 4): 1.0
- Draize irritation class (NZW rabbit eyes; [9]): N
- Maximum Mean Total Score (NZW rabbit eyes; [9]): 0.0
- Maximum Mean Total Score (NZW rabbit eyes; 3% ointment 4 times daily, non-scarified eyes, Day 3): 2.0
- Maximum Mean Total Score (NZW rabbit eyes; 3% ointment 4 times daily, non-scarified eyes, Day 4): 2.0
- ocular irritation by Draize scoring (NZW rabbit eyes; 3% ointment, scarified eyes, 4 times daily for 4 days): practically non-irritating
- inhibition of corneal epithelial wound healing (NZW rabbit eyes; eyes that had undergone corneal epithelial scarification): no inhibition
- ocular irritation by Draize scoring (NZW rabbit eyes; rabbit, in vivo): non-irritating or practically non-irritating
- signs of systemic toxicity (decreased appetite, weight loss, wasting, death) [1]: no obvious signs of systemic toxicity

SMILES: Nc1ccn(C[C@@H](CO)OCP(=O)(O)O)c(=O)n1 [Cidofovir, cidofovir, reference compound]
- toxicity leading to discontinuation of development of topical cidofovir in the USA [2]: epiphora due to secondary lacrimal canalicular blockade
